Patent US8436006B2, “2-amino-quinazoline derivatives useful as inhibitors of β-secretase (BACE)” (Jansssen Pharmaceutica N.V., priority 2004, dated 2013)

What was measured:
Assay type in all cases: biochemical
β-secretase (BACE) [1] = molecular target: T1, β-secretase (BACE) (Homo sapiens, UniProt P56817); experiment: BACE Assay-2 (Example 159), FS1 substrate, kinetic fluorescence; details: procedure of Example 159
T1 construct: purchased Panvera
Protocol: The FS1-substrate stock solution was prepared in DMSO as a 10 mg/mL solution. The FS1-substrate working solution was prepared by diluting the 10 mg/mL stock solution with substrate assay buffer to a final concentration of 300 μg/mL. The β-secretase (BACE) working solution was prepared by diluting a 0.83 mg/mL BACE stock solution with enzyme assay buffer to a final concentration of 4 μg/mL.
Test compounds were dissolved in DMSO at 10 mM.
The procedure for this assay was as follows: 15 μL of BACE working solution was pipetted into each well of a 96-well plate. To each well was then pipetted 2 μL of test compound at the selected concentration. Test compound and BACE were then mixed with a pipettor and incubated for 20 min at room temperature. To each well was then added 10 μL of the FS1 substrate working solution.
The procedure for the positive control was as follows: 15 μL of BACE working solution was pipetted into each well to be used as a positive control. To each well was then pipetted 2 μL of vehicle. Vehicle and BACE were then mixed with a pipettor and incubated for 20 min at room temperature. To each well was then added 10 μL of the FS1 substrate working solution.
For test compounds, measured at multiple concentrations, the measured T0 and T60 values were used to calculate an IC50 value using Graphpad Software (or PIR). For test compounds, Ki inhibition was determined as follows: For each compound concentration and positive control, rate of cleavage of substrate (Vi, where i=compound concentration in μM) was determined as Δ Fluorescence/Δ time (min). Cleavage rates (Vi) were plotted as a function of inhibitor concentration in μM [I]. The Ki was then determined by fitting the following equation to the graph of [I] vs Vi Y=aVmax/(50+24*(1+X/Ki)),

β-secretase (BACE) [2] = molecular target: T1, β-secretase (BACE); experiment: BACE % Inhibition Assay (Example 161), (Aedens)-[…]-(Dabcyl K-amide) substrate; details: % error ±10%
Protocol: The following reagents were used in this assay: sodium acetate, PEG8000 (Sigma), DMSO, HEPES, (Aedens)-[…]-(Dabcyl K-amide) substrate, β-secretase (BACE) (Panvera), and 96-well plate (HE microplate, Molecular Devices).
The substrate stock solution was prepared in DMSO as a 10 mg/mL solution. The substrate working solution was prepared by diluting the 10 mg/mL stock solution with substrate assay buffer to a final concentration of 300 μg/mL. The β-secretase (BACE) working solution was prepared by diluting a 0.83 mg/mL BACE stock solution with enzyme assay buffer to a final concentration of 4 μg/mL.
Test compounds were dissolved in DMSO to 10 mM.
The screening procedure for this assay was as follows: 15 μL of BACE working solution was pipetted into each well of a 96-well plate. To each well was then pipetted 2 μL of test compound at the selected concentration. Test compound and BACE were then mixed with a pipettor and incubated for 20 min at room temperature. To each well was then added 10 μL of the substrate working solution. The plates were then incubated for 1 hour at room temperature.
The procedure for the blank was as follows. 15 μL of assay buffer was pipetted into each well to be used as a blank control. To each well was then added 2 μL of vehicle and 10 μL of substrate working solution. The plates were then incubated for 1 hour at room temperature.
The procedure for the positive control was as follows: 15 μl of BACE working solution was pipetted into each well to be used as a positive control. To each well was then pipetted 2 μL of vehicle. Vehicle and BACE were then mixed with a pipettor and incubated for 20 min at room temperature. To each well was then added 10 μL of the substrate working solution. The plates were then incubated for 1 hour at room temperature.
For test compounds, % inhibition was determined at each concentration as follows: % Inhibition=[[…]][FI(positive control)−FI(negative control)]

β-secretase (BACE) [3] = molecular target: T1, β-secretase (BACE); experiment: BACE FS1% Inhibition Assay (Example 160)
Protocol: The following reagents were used in this assay: sodium acetate, PEB8000 (Sigma), DMSO, HEPES, FS1 substrate [[…]], β-secretase (BACE) (Panvera), and 96-well plate (HE microplate, Molecular Devices). […] The FS1-substrate stock solution was prepared in DMSO as a 10 mg/mL solution. The FS1-substrate working solution was prepared by diluting the 10 mg/mL stock solution with substrate assay buffer to a final concentration of 300 μg/mL. The β-secretase (BACE) working solution was prepared by diluting a 0.83 mg/mL BACE stock solution with enzyme assay buffer to a final concentration of 4 μg/mL. Test compounds were dissolved in DMSO to 10 mM. […] The screening procedure for this assay was as follows: 15 μL of BACE working solution was pipetted into each well of a 96-well plate. To each well was the pipetted 2 μL of test compound at the selected concentration. Test compound and BACE were then mixed with a pipettor and incubated for 20 min at room temperature. To each well was then added 10 μL of the FS1 substrate working solution. The plates were then incubated for 1 hour at room temperature. […] The procedure for the blank was as follows. 15 μL of assay buffer was pipetted into each well to be used as a blank control. To each well was then added 2 μL of vehicle and 10 μL of FS1-substrate working solution. The plates were then incubated for 1 hour at room temperature. […] The procedure for the positive control was as follows: 15 μL of BACE working solution was pipetted into each well to be used as a positive control. To each well was then pipetted 2 μL of vehicle. Vehicle and BACE were then mixed with a pipettor and incubated for 20 min at room temperature. To each well was then added 10 μL of the FS1 substrate working solution. The plates were then incubated for 1 hour at room temperature. […] For test compounds, % inhibition was determined at each concentration as follows: [formula]

β-secretase (BACE) [4] = molecular target: T1, β-secretase (BACE); experiment: BACE Assay-1 (Example 158), MCA-substrate fluorescence; details: procedure of Example 158
Protocol: The following standards are reagents were used in this assay: Sodium Citrate trisodium salt dihydrate (Sigma), Citric Acid monohydrate (Merck), PEG8000 (Sigma), MCA-substrate (Bachem), β-secretase (BACE) (Panvera), 96-well plate zwart (Costar (Elscolab)), StatVal (Bachem).
The following standard assay buffer solution was prepared and used in this assay: 0.05 M, pH 5.0 mixture of sodium citrate trisodium salt dihydrate (9.56 g), citric acid monohydrate (3.68 g) and PEG8000 (0.50 g).
The MCA-substrate stock solution was prepared by mixing 10 mg MCA-substrate with 5 mL DMSO for a final solution concentration of 2.0 mg/mL. The substrate work solution was prepared by mixing 0.1 mL substrate in 1.90 mL assay buffer for a final concentration of 0.05 mM. The β-secretase (BACE) work solution was prepared by mixing 8 μL BACE in 2 mL assay buffer for a final concentration of 10 μg/mL.
The screen procedure for this assay was as follows. 60 μL of assay buffer was pippeted into each well of a 96-well plate. To each well was then pipetted 1 μL of test compound at the selected concentration. To each well was then added 20 μL of the β-secretase work solution and 20 μL of the MCA-substrate stock solution.
The procedure for the blank was as follows. 80 μL of assay buffer was pipetted into each well to be used as a blank control. To each well was then added 1 μL of DMSO and 20 μL of MCA-substrate solution in each well.
The procedure for the positive control was as follows. 60 μL of assay buffer was pipetted into each well to be used as a positive control. To each well was then added 1 μL of DMSO, 20 μL of BACE work solution and 20 μL of MCA-substrate stock solution.
For test compounds, measured at multiple concentrations, the measured T0 and T60 values were used to calculate an IC50 value using Graphpad Software (or PIR).

[5] = 0.3 μM test compound, read-out: % Inhibition (FS)
[6] = 1 μM test compound, read-out: % Inhibition (FS)
[7] = 3 μM test compound, read-out: % Inhibition (FS)

T1 sequence (P56817 46-501): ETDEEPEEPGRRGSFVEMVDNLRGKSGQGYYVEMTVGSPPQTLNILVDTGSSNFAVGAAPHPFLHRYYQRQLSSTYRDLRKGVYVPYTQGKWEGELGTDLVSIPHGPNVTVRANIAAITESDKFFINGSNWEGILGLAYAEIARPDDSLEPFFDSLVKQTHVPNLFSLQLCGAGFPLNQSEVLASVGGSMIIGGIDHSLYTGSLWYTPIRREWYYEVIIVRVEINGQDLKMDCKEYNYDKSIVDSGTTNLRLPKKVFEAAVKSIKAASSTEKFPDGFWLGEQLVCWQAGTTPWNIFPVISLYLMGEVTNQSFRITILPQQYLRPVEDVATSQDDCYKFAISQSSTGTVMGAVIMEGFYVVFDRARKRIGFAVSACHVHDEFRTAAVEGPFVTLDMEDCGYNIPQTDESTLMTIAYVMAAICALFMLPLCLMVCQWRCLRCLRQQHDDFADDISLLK

| Structure (SMILES) | Ki (β-secretase (BACE) [1]) | inhibition at 0.3 µM (β-secretase (BACE) [3]; [5]) | inhibition at 1 µM (β-secretase (BACE) [3]; [6]) | inhibition at 3 µM (β-secretase (BACE) [3]; [7]) | % Inhibition (β-secretase (BACE) [2]; 0.3 μM test compound) | further results |
| --- | --- | --- | --- | --- | --- | --- |
| NC1=Nc2ccc(Oc3ccccc3)cc2CN1C(CNC(=O)C1(c2ccc(Cl)cc2)CCCC1)C1CCCCC1 (stereo not drawn) [Compound 390] | 0.57 µM | – | – | – | – | inhibition at 0.3 µM (β-secretase (BACE) [2]; 0.3 μM test compound): < 30%; inhibition at 1 µM (β-secretase (BACE) [2]; 1 μM test compound): 50%; inhibition at 3 µM (β-secretase (BACE) [2]; 3 μM test compound): 102% |
| CCCC(CNC(=O)C12CC3CC(CC(C3)C1)C2)N1Cc2cc(Oc3ccccc3)ccc2N=C1N (stereo not drawn) [Compound 602] | 0.056 µM | 78% | 113% | 121% | – | – |
| CN(C(=O)CC(C1CCCCC1)N1Cc2cc(Oc3ccccc3)ccc2N=C1N)C1CCCCC1 (stereo not drawn) [Compound 199] | 0.51 µM | < 30% | < 30% | 82% | – | – |
| NC1=Nc2ccc(Oc3ccccc3)cc2CN1C(CNC(=O)CCC1CCCC1)C1CCCCC1 (stereo not drawn) [Compound 366] | – | – | – | – | 64% | – |
| CCCCCC(CCC(=O)NC1CCCCCC1)N1Cc2cc(Oc3ccccc3)ccc2N=C1N (stereo not drawn) [Compound 150] | 0.46 µM | < 30% | < 30% | 90% | – | – |
| NC1=Nc2ccc(Oc3ccccc3)cc2CN1C(CNC(=O)C12CC3CC(CC(C3)C1)C2)C1CCCCC1 (stereo not drawn) [Compound 312] | 0.039 µM | 74% | 103% | 115% | – | IC50 (β-secretase (BACE) [4]): 0.039 µM |
| NC1=Nc2ccc(Oc3ccccc3)cc2CN1C(CCNC(=O)C1CCCCC1)C1CCCCC1 (stereo not drawn) [Compound 391] | – | – | – | – | 35% | % Inhibition (β-secretase (BACE) [2]; 1 μM test compound): 93%; % Inhibition (β-secretase (BACE) [2]; 3 μM test compound): 115% |
| NC1=Nc2ccc(Oc3ccccc3)cc2CN1Cc1cccc(C(=O)N(C2CCCCC2)C2CCCCC2)c1 [Compound 98] | – | – | – | – | – | % Inhibition (FS) (β-secretase (BACE) [3]; 0.3 μM test compound): 49%; % Inhibition (FS) (β-secretase (BACE) [3]; 1 μM test compound): 93%; % Inhibition (FS) (β-secretase (BACE) [3]; 3 μM test compound): 114%; % Inhibition (β-secretase (BACE) [2]; 3 μM test compound): 76%; % Inhibition (β-secretase (BACE) [2]; 10 μM test compound): 99% |
| NC1=Nc2ccc(Oc3ccccc3)cc2CN1C(CCNC(=O)C1CCCC1)C1CCCCC1 (stereo not drawn) [Compound 392] | – | – | – | – | 75% | % Inhibition (β-secretase (BACE) [2]; 3 μM test compound): 120% |
| NC1=Nc2ccc(Oc3ccccc3)cc2CN1C(CNC(=O)C1CCCCC1)c1ccccc1 (stereo not drawn) [Compound 342] | – | – | – | – | 50% | % Inhibition (β-secretase (BACE) [2]; 1 μM test compound): 93% |
| CC(C)(C)OC(=O)NCC(C1CCCCC1)N1Cc2cc(Oc3ccccc3)ccc2N=C1N (stereo not drawn) [Compound 257] | 0.056 µM | 67% | 105% | – | – | IC50 (β-secretase (BACE) [4]): 0.083 µM |
| CCCC(CNC(=O)OC(C)(C)C)N1Cc2cc(Oc3ccccc3)ccc2N=C1N (stereo not drawn) [Compound 318] | – | – | – | – | 32% | % Inhibition (β-secretase (BACE) [2]; 1 μM test compound): 70%; % Inhibition (β-secretase (BACE) [2]; 3 μM test compound): 103% |
| CCCC(CCC(=O)NC1CCCCCC1)N1Cc2cc(Oc3ccccc3)ccc2N=C1N (stereo not drawn) [Compound 128] | 0.13 µM | – | – | 97% | – | IC50 (β-secretase (BACE) [4]): 0.072 µM; inhibition at 10 µM (β-secretase (BACE) [3]; 10 μM test compound, read-out: % Inhibition (FS)): 108% |
| CCCC(CNC(=O)C1CCCCC1)N1Cc2cc(Oc3ccccc3)ccc2N=C1N (stereo not drawn) [Compound 343] | – | – | – | – | 81% | – |
| CCCN1Cc2cc(Oc3cccc(NS(=O)(=O)c4cccc5nsnc45)c3)ccc2N=C1N [Compound 247] | – | – | – | – | – | IC50 (β-secretase (BACE) [4]): 1.7 µM |
| CC(C)CC(=O)NCC(C1CCCCC1)N1Cc2cc(Oc3ccccc3)ccc2N=C1N (stereo not drawn) [Compound 389] | – | – | – | – | 85% | % Inhibition (β-secretase (BACE) [2]; 1 μM test compound): 112%; % Inhibition (β-secretase (BACE) [2]; 3 μM test compound): 120% |
| CCC[C@H](CNC(=O)CCC(C)C)N1Cc2cc(Oc3ccccc3)ccc2N=C1N [Compound 603] | 0.033 µM | 101% | 114% | 122% | – | – |
| Cc1ccccc1-c1ccc2c(c1)CN(CCNC(=O)C1CCC(C(F)(F)F)CC1)C(N)=N2 (stereo not drawn) [Compound 694] | – | – | – | – | – | % Inhibition (FS) (β-secretase (BACE) [3]; 0.3 μM test compound): <30%; % Inhibition (FS) (β-secretase (BACE) [3]; 1 μM test compound): <30%; % Inhibition (FS) (β-secretase (BACE) [3]; 3 μM test compound): 84% |
| NC1=Nc2ccc(-c3ccccc3Cl)cc2CN1CCNC(=O)C1CCC(C(F)(F)F)CC1 (stereo not drawn) [Compound 690] | – | – | – | – | – | % Inhibition (FS) (β-secretase (BACE) [3]; 0.3 μM test compound): <30%; % Inhibition (FS) (β-secretase (BACE) [3]; 1 μM test compound): <30%; % Inhibition (FS) (β-secretase (BACE) [3]; 3 μM test compound): 52% |
